Experimental data: patent US20090111823A1, “AMINOPYRIDINE DERIVATIVES AS MODULATORS OF MGLUR5” (AstraZeneca AB, priority 2007, published 2009)

Legend:
[1] = target: T1, human mGluR5d (Homo sapiens, UniProt P41594); assay: FLIPR assay, mobilization of intracellular calcium in cells expressing human mGluR5d; assay type: cell-based; details: antagonism, read-out: FLIPR hmGluR5d
T1 construct: expressed in transfected cells; The separate IP3 assay uses GHEK cells stably expressing human mGluR5d
Excerpt: Functional Assessment of mGluR5 Antagonism in Cell Lines Expressing mGluR 5D
The properties of the compounds of the invention can be analyzed using standard assays for pharmacological activity. Examples of glutamate receptor assays are well known in the art as described in for example Aramori et al, Neuron 8:757 (1992), Tanabe et al., Neuron 8:169 (1992), Miller et al., J. Neuroscience 15: 6103 (1995), Balazs, et al., J. Neurochemistry 69:151 (1997). The methodology described in these publications is incorporated herein by reference. Conveniently, the compounds of the invention can be studied by means of an assay (FLIPR) that measures the mobilization of intracellular calcium, [Ca^2+]i in cells expressing mGluR5 or another assay (IP3) that measures inositol phosphate turnover.
Cells expressing human mGluR5d as described in WO97/05252 cultured in a mixture of high glucose DMEM with Glutamax (31966-021)(500 mL), 10% dialyzed fetal bovine serum (Hyclone #SH30079.03)(56 mL), 200 μg/mL Hygromycin B (Invitrogen 45-0430, 50 mg/mL)(2.2 mL), 200 μg/mL Zeocin (invitrogen #R250-01; 100 mg/mL)(1.1 mL) are seeded at a density of 100,000 cells per well on collagen coated clear bottom 96-well plates with black sides and cells were allowed to adhere over night before experiments. All assays are done in a buffer containing 146 mM NaCl, 5 mM KCl, 1 mM MgCl2, 1 mM CaCl2, 20 mM HEPES, 1 mg/mL glucose and 1 mg/mL BSA Fraction IV (pH 7.4). Cell cultures in the 96-well plates are loaded for 60 minutes in the above mentioned buffer containing 6 μM of the acetoxymethyl ester form of the fluorescent calcium indicator fluo-3 (Molecular Probes, Eugene, Oreg.) in 0.025% pluronic acid (a proprietary, non-ionic surfactant polyol—CAS Number 9003-11-6). […] The fluorescence signal is sampled 50 times at 1-second intervals followed by 3 samples at 5-second intervals immediately after each of the two additions. Responses are measured as the difference between the peak heights of the response to agonist, less the background fluorescence within the sample period. […]

[2] = Determination of brain to plasma ratio in rat; assay type: in vivo; details: female Sprague Dawley rats, read-out: Brain/Plasma Ratio of compound in Rat
Protocol: Brain to plasma ratios are estimated in female Sprague Dawley rats. The compound is dissolved in water or another appropriate vehicle. For determination of brain to plasma ratio the compound is administrated as a subcutaneous, or an intravenous bolus injection, or an intravenous infusion, or an oral administration. At a predetermined time point after the administration a blood sample is taken with cardiac puncture. The rat is terminated by cutting the heart open, and the brain is immediately retained. The blood samples are collected in heparinized tubes and centrifuged within 30 minutes, in order to separate the plasma from the blood cells. The plasma is transferred to 96-well plates and stored at −20° C. until analysis. The brains are divided in half, and each half is placed in a pre-tarred tube and stored at −20° C. until analysis. Prior to the analysis, the brain samples are thawed and 3 mL/g brain tissue of distilled water is added to the tubes. The brain samples are sonicated in an ice bath until the samples are homogenized. Both brain and plasma samples are precipitated with acetonitrile. After centrifugation, the supernatant is diluted with 0.2% formic acid. Analysis is performed on a short reversed-phase HPLC column with rapid gradient elution and MSMS detection using a triple quadrupole instrument with electrospray ionisation and Selected Reaction Monitoring (SRM) acquisition. Liquid-liquid extraction may be used as an alternative sample clean-tip. The samples are extracted, by shaking, to an organic solvent after addition of a suitable buffer. An aliquot of the organic layer is transferred to a new vial and evaporated to dryness under a stream of nitrogen. After reconstitution of the residuals the samples are ready for injection onto the HPLC column.

T1 sequence (P41594 21-942 isoform P41594-3 limits assumed): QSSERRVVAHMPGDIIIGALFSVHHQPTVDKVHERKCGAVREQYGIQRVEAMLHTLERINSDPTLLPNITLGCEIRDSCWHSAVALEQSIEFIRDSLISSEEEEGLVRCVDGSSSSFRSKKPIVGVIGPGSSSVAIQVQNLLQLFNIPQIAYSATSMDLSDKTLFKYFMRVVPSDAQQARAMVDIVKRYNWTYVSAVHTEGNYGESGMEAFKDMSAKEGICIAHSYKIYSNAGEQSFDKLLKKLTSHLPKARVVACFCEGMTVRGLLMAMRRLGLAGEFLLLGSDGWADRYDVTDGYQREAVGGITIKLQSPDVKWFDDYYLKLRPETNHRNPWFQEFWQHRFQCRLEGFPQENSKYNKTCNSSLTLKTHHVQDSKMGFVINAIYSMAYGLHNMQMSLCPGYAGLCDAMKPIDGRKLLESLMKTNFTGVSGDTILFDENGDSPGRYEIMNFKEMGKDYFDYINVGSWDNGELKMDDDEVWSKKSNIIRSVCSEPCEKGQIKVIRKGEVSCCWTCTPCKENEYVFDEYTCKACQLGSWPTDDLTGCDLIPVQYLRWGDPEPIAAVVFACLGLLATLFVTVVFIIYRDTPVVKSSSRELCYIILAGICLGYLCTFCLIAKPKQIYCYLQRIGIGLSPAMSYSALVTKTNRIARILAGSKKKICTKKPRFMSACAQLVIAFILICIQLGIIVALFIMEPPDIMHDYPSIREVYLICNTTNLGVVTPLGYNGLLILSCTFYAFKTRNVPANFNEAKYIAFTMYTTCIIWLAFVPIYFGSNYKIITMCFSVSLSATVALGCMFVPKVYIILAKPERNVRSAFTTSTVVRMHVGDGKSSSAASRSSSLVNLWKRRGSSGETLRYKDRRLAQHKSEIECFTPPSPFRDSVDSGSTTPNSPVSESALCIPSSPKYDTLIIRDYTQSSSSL

Structure (SMILES) | IC50 [1] | Kp [2]
Cn1c(-c2ccc(N)nc2)nnc1N1CCCC1c1cc(-c2ccccc2)on1 (stereo in doubt) [Example 5.3, 5-{4-Methyl-5-[(2R)-2-(5-phenylisoxazole-3-yl)pyrrolidin-1-yl]-4H-1,2,4-triazol-3-yl}pyridin-2-amine] | 34 nM | < 0.01
CN(C)c1ccc(-c2nnc(N3CCC[C@@H]3c3cc(-c4cccc(Cl)c4)on3)n2C)cn1 [Example 5.1, 5-(5-{(2R)-2-[5-(3-Chlorophenyl)isoxazol-3-yl]pyrrolidin-1-yl}-4-methyl-4H-1,2,4-triazol-3-yl)-N,N-dimethylpyridin-2-amine] | 39 nM | 0.285
Cn1c(-c2ccc(N)nc2)nnc1N1CCC[C@@H]1c1cc(-c2cccc(Cl)c2)on1 [Example 5.2, 5-(5-{(2R)-2-[5-(3-Chlorophenyl)isoxazol-3-yl]pyrrolidin-1-yl}-4-methyl-4H-1,2,4-triazol-3-yl)pyridin-2-amine] | < 3 nM | 0.085
